Data published in patent US9540377B2, “2,6,7,8 substituted purines as HDM2 inhibitors” (Merck Sharp & Dohme Corp., priority 2013, dated 2017).

The compounds below were run against HDM2 (truncated, residues 17 to 125, containing p53 binding surface) (Homo sapiens (Human), UniProt Q00987) (assay: HDM2 FRET assay (inhibition of binding of FITC labeled p53-site peptide to HDM2)). Conditions: Table 16.
HDM2 (truncated, residues 17 to 125, containing p53 binding surface), sequence (Q00987 17-125): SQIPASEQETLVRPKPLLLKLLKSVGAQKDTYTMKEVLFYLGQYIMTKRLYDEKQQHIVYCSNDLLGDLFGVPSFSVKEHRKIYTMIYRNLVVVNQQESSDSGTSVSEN
Excerpt: IC50 DETERMINATIONS: Dose-response curves were plotted from the inhibition data, from 10 point serial dilutions of inhibitory compounds. Concentration of compound was plotted against em520/Cem495 ratio signal. To generate IC50 values, the dose-response curves were fitted to a standard sigmoidal curve and IC50 values were derived by nonlinear regression analysis.
In the case of C[C@H]1CC[C@H](Cn2c(N3CCOC4CCCCC43)nc3nc(-c4noc(=O)[nH]4)nc(-c4cncc(Cl)c4)c32)CC1 (single isomer, unassigned) [Example 16.51, 3-[6-(5-chloropyridin-3-yl)-7-[(trans-4-methylcyclohexyl)methyl]-8-(octahydro-4H-1,4-benzoxazin-4-yl)-7H-purin-2-yl]-1,2,4-oxadiazol-5(4H)-one], the IC50 is reported as 30.2 nM.
Work on Cc1ncc(Cl)cc1-c1nc(-c2noc(=O)[nH]2)nc2nc(N3CCO[C@@H]4CCC[C@H]43)n(C[C@H]3CC[C@H](C)CC3)c12 (racemic) [Example 16.164, 3-{6-(5-chloro-2-methylpyridin-3-yl)-8-[(trans)-hexahydrocyclopenta [b][1,4]oxazin-4(4aH)-yl]-7-[(trans-4-methylcyclohexyl)methyl]-7H-purin-2-yl}-1,2,4-oxadiazol-5(4H)-one] yielded an IC50 of 2.09 nM.
In the case of Cc1noc(C2CCCN2c2nc3nc(-c4noc(=O)[nH]4)nc(-c4cncc(Cl)c4)c3n2C[C@H]2CC[C@H](C)CC2)n1 (mixture of isomers) [Example 16.143, 3-{6-(5-chloropyridin-3-yl)-7-[(trans-4-methylcyclohexyl)methyl]-8-[2-(3-methyl-1,2,4-oxadiazol-5-yl)pyrrolidin-1-yl]-7H-purin-2-yl}-1,2,4-oxadiazol-5(4H)-one], the IC50 is reported as 1.48 nM.
For Cc1nnc(C2CCCN2c2nc3nc(-c4noc(=O)[nH]4)nc(-c4cncc(Cl)c4)c3n2C[C@H]2CC[C@H](C)CC2)o1 (mixture of isomers) [Example 16.141, 3-{6-(5-chloropyridin-3-yl)-7-[(trans-4-methylcyclohexyl)methyl]-8-[2-(5-methyl-1,3,4-oxadiazol-2-yl)pyrrolidin-1-yl]-7H-purin-2-yl}-1,2,4-oxadiazol-5(4H)-one], the IC50 was 26.8 nM.
Cc1noc(C2CCCN2c2nc3nc(C(=O)O)nc(-c4cncc(Cl)c4)c3n2C[C@H]2CC[C@H](C)CC2)n1 (mixture of isomers) [Example 16.145, 6-(5-chloropyridin-3-yl)-7-[(trans-4-methylcyclohexyl)methyl]-8-[2-(3-methyl-1,2,4-oxadiazol-5-yl)pyrrolidin-1-yl]-7H-purine-2-carboxylic acid] showed an IC50 of 3.92 nM.
Work on C[C@H]1CC[C@H](Cn2c(N3CCCC4COCCC43)nc3nc(-c4n[nH]c(=O)o4)nc(-c4cncc(Cl)c4)c32)CC1 (single isomer, unassigned) [Example 16.123, 5-{6-(5-chloropyridin-3-yl)-8-(hexahydro-2H-pyrano[4,3-b]pyridin-1(5H)-yl)-7-[(trans-4-methylcyclohexyl)methyl]-7H-purin-2-yl}-1,3,4-oxadiazol-2(3H)-one] yielded an IC50 of 59.1 nM.
With COC(C)(C)C1CCCN1c1nc2nc(-c3n[nH]c(=O)o3)nc(-c3cccc(Cl)c3)c2n1C[C@H]1CC[C@H](C)CC1 (single isomer, unassigned) [Example 16.70, 5-{6-(3-chlorophenyl)-8-[2-(1-methoxy-1-methylethyl)pyrrolidin-1-yl]-7-[(trans-4-methylcyclohexyl)methyl]-7H-purin-2-yl}-1,3,4-oxadiazol-2(3H)-one] the IC50 was 2.29 nM.

Same assay, conditions: Table 18
With CC([C@H]1CC[C@H](C)CC1)n1c(N2CCOC3CCCC32)nc2nc(-c3noc(=O)[nH]3)nc(-c3cccc(Cl)c3)c21 (single isomer, unassigned) [Example 18.40, 3-{6-(3-chlorophenyl)-8-(hexahydrocyclopenta[b][1,4]oxazin-4(4aH)-yl)-7-[1-(trans-4-methylcyclohexyl)ethyl]-7H-purin-2-yl}-1,2,4-oxadiazol-5(4H)-one] the IC50 was 7.86 nM.
With CC([C@H]1CC[C@H](C)CC1)n1c(N2CCOC3CCCC32)nc2nc(-c3noc(=O)[nH]3)nc(-c3cncc(Cl)c3)c21 (single isomer, unassigned) [Example 18.53, 3-{6-(5-chloropyridin-3-yl)-8-(hexahydrocyclopenta[b][1,4]oxazin-4(4aH)-yl)-7-[1-(trans-4-methylcyclohexyl)ethyl]-7H-purin-2-yl}-1,2,4-oxadiazol-5(4H)-one] the IC50 was 7.36 nM.

Same assay, conditions: Table 23
Compound CC(F)(c1ccccn1)c1nc2nc(-c3n[nH]c(=O)o3)nc(-c3cccc(Cl)c3)c2n1C[C@H]1CC[C@H](C)CC1 (single isomer, unassigned) [Example 23.37, 5-{6-(3-chlorophenyl)-8-[1-fluoro-1-(pyridin-2-yl)ethyl]-7-[{trans-4-methylcyclohexyl)methyl]-7H-purin-2-yl}-1,3,4-oxadiazol-2(3H)-one] has an IC50 of 9.65 nM.
For COC(c1nc2nc(-c3noc(=O)[nH]3)nc(-c3cncc(Cl)c3)c2n1C[C@H]1CC[C@H](C)CC1)C1CCOCC1 (mixture of isomers) [Example 23.18, 3-{6-(5-chloropyridin-3-yl)-8-[methoxy(tetrahydro-2H-pyran-4-yl)methyl]-7-[(trans-4-methylcyclohexyl)methyl]-7H-purin-2-yl}-1,2,4-oxadiazol-5(4H)-one], the IC50 was 24.1 nM.
For COc1ccccc1C(C)(F)c1nc2nc(-c3noc(=O)[nH]3)nc(-c3cncc(Cl)c3)c2n1C[C@H]1CC[C@H](C)CC1 (single isomer, unassigned) [Example 23.26, 3-{6-(5-chloropyridin-3-yl)-8-[1-fluoro-1-(2-methoxyphenyl)ethyl]-7-[(trans-4-methylcyclohexyl)methyl]-7H-purin-2-yl}-1,2,4-oxadiazol-5(4H)-one], the IC50 was 5.37 nM.
Work on COC(c1nc2nc(-c3n[nH]c(=O)o3)nc(-c3cccc(Cl)c3)c2n1C[C@H]1CC[C@H](C)CC1)C1CCOCC1 (mixture of isomers) [Example 23.16, 5-{6-(3-chlorophenyl)-8-[methoxy(tetrahydro-2H-pyran-4-yl)methyl]-7-[(trans-4-methylcyclohexyl)methyl]-7H-purin-2-yl}-1,3,4-oxadiazol-2(3H)-one] yielded an IC50 of 12.3 nM.
Work on COCC(C)(F)c1nc2nc(-c3n[nH]c(=O)o3)nc(-c3cncc(Cl)c3)c2n1C[C@H]1CC[C@H](C)CC1 (mixture of isomers) [Example 23.106, 5-{6-(5-chloropyridin-3-yl)-8-(1-fluoro-2-methoxy-1-methylethyl)-7-[(trans-4-methylcyclohexyl)methyl]-7H-purin-2-yl}-1,3,4-oxadiazol-2(3H)-one] yielded an IC50 of 3.93 nM.
Compound CC(F)(c1nc2nc(-c3n[nH]c(=O)o3)nc(-c3cncc(Cl)c3)c2n1C[C@H]1CC[C@H](C)CC1)C1CCCC1 (mixture of isomers) [Example 23.58, 5-{6-(5-chloropyridin-3-yl)-8-(1-cyclopentyl-1-fluoroethyl)-7-[(trans-4-methylcyclohexyl)methyl]-7H-purin-2-yl}-1,3,4-oxadiazol-2(3H)-one] has an IC50 of 1.95 nM.
COC(C)(c1cccc(Cl)c1F)c1nc2nc(-c3n[nH]c(=O)o3)nc(-c3cncc(Cl)c3)c2n1C[C@H]1CC[C@H](C)CC1 (single isomer, unassigned) [Example 23.74, 5-{8-[1-(3-chloro-2-fluorophenyl)-1-methoxyethyl]-6-(5-chloropyridin-3-yl)-7-[(trans-4-methylcyclohexyl)methyl]-7H-purin-2-yl}-1,3,4-oxadiazol-2(3H)-one] gave an IC50 of 17.8 nM.
For CC1COCCC1(F)c1nc2nc(-c3noc(=O)[nH]3)nc(-c3cncc(Cl)c3)c2n1C[C@H]1CC[C@H](C)CC1 (single isomer, unassigned) [Example 23.95, 3-{6-(5-chloropyridin-3-yl)-8-(4-fluoro-3-methyltetrahydro-2H-pyran-4-yl)-7-[(trans-4-methylcyclohexyl)methyl]-7H-purin-2-yl}-1,2,4-oxadiazol-5(4H)-one], the IC50 was 4.33 nM.
